# Data as given in patent US20260158014A1, “METHODS OF ADMINISTERING VOXELOTOR” (Global Blood Therapeutics, Inc., priority 2021, published 2026).
# Tests used:
# CYP3A4 = CYP3A4 (Homo sapiens, UniProt P08684); experiment: Clinical probe-substrate DDI study: midazolam; conditions: healthy subjects
# Protocol: The effect of voxelotor on the pharmacokinetics (PK) of a single dose of caffeine, warfarin sodium, omeprazole, and midazolam hydrochloride, which are probe substrates for cytochrome P450 (CYP)1A2, CYP2C9, CYP2C19, and CYP3A4, respectively, were studied in healthy subjects. During Period 1, subjects received a single dose of caffeine 100 mg, warfarin sodium 10 mg+vitamin K 10 mg, omeprazole 20 mg, and midazolam hydrochloride 2 mg on Day 1. During Period 2, subjects received voxelotor 900 mg QD on Days 1 and 2 followed by 600 mg QD on Day 3, a single dose of caffeine 100 mg, warfarin sodium 10 mg+vitamin K 10 mg, omeprazole 20 mg, and midazolam hydrochloride 2 mg on Day 4, and voxelotor 600 mg QD on Days 4 through 7.
# Whole blood and plasma concentrations of voxelotor and plasma concentrations of caffeine, paraxanthine, S-warfarin, omeprazole, 5-hydroxyomeprazole, midazolam, and 1-hydroxymidazolam were determined using validated assays.
# P-gp = P-gp (Homo sapiens, UniProt P08183); experiment: Clinical DDI: voxelotor on digoxin; conditions: in vivo
# Sequence of P-gp (P08183 whole entry): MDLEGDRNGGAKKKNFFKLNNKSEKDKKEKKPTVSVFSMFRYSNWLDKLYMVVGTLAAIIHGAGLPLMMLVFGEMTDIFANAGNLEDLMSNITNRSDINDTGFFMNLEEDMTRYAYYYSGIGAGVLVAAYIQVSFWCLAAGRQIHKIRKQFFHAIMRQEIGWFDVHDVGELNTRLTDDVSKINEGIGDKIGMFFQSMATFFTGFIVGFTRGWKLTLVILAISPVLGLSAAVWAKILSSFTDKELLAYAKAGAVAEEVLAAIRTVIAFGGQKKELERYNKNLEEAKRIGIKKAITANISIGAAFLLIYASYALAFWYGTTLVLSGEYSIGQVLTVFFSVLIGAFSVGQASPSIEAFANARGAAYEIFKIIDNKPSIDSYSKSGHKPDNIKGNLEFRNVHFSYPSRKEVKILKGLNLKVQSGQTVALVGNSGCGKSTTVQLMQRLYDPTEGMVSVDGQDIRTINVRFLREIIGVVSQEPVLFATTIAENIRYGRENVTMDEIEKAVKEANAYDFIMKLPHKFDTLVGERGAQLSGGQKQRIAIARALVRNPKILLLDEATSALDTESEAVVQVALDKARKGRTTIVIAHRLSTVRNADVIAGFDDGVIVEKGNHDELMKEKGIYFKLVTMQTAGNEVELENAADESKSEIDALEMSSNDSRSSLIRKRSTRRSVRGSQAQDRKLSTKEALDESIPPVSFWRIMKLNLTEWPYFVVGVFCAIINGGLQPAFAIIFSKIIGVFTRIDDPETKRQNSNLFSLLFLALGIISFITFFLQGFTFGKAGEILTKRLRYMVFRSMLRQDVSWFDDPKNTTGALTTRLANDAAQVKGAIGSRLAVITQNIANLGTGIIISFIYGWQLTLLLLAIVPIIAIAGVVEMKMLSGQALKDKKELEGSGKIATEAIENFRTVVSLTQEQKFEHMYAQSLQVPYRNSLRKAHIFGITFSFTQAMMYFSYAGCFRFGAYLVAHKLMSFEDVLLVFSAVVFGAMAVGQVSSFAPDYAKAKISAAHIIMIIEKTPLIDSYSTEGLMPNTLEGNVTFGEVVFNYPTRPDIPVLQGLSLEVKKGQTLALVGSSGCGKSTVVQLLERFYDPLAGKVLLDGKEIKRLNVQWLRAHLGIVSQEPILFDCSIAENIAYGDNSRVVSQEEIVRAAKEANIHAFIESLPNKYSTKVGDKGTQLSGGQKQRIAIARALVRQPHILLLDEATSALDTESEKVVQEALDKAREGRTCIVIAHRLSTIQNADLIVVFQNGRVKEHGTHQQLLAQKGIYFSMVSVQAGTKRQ
# [1] = voxelotor 900 mg QD days 1-2, then 600 mg QD, midazolam hydrochloride 2 mg single dose
# Sequence of CYP3A4 (P08684 whole entry): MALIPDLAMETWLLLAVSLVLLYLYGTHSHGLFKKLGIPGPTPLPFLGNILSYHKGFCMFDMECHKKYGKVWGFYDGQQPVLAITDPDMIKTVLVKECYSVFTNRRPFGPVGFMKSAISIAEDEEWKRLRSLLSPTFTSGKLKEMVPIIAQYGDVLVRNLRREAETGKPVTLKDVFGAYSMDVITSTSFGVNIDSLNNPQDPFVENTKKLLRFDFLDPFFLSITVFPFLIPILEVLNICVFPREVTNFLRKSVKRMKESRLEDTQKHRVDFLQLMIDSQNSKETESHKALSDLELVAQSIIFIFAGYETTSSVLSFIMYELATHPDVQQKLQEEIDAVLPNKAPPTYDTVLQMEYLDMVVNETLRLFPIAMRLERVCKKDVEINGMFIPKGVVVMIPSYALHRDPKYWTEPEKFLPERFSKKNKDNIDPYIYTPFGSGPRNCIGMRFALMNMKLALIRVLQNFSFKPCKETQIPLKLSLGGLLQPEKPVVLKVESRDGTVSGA
smiles,measurement,setting,value
OCc1ncc2n1-c1ccc(Cl)cc1C(c1ccccc1F)=NC2 [1′-hydroxy-midazolam],increase of overall exposure of midazolam metabolite in the presence of voxelotor,CYP3A4; [1],75%
C[C@H]1O[C@@H](O[C@H]2[C@@H](O)C[C@H](O[C@H]3[C@@H](O)C[C@H](O[C@H]4CC[C@@]5(C)[C@H](CC[C@@H]6[C@@H]5C[C@@H](O)[C@]5(C)[C@@H](C7=CC(=O)OC7)CC[C@]65O)C4)O[C@@H]3C)O[C@@H]2C)C[C@H](O)[C@@H]1O [digoxin],effect of concomitant OXBRYTA on digoxin (P-gp substrate),P-gp,did not alter digoxin to a clinically relevant extent
Cc1ncc2n1-c1ccc(Cl)cc1C(c1ccccc1F)=NC2 [midazolam],observed exposure increase of midazolam with voxelotor,CYP3A4,1.6 fold
same,increase of overall exposure of midazolam in the presence of voxelotor,CYP3A4; [1],63%
